In patent publication US9682940B2, “Indazole derivatives useful as CB-1 inverse agonists” (Janssen Pharmaceutica NV, priority 2015, dated 2017) one finds EC50 data, which are given here for 34 compounds.

For assay [1], the target named is Human CB1R (Cannabanoid receptor 1) (Homo sapiens (Human), UniProt P21554). Kind of assay: CB-1 in vitro cAMP (HTRF) assay in HEK-293 cells. The assay is classed as cell-based. The following applies: HEK-293 cells stably transfected with human CB1R, 250 nM Forskolin, mean where tested more than once, read-out: CB-1 (HEK_cAMP) EC50. The method in brief:
(§1)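 HEK-293 cells stably expressing human CB1 or CB2 plated overnight, then tested in HBSS/5 mM HEPES/0.1% BSA with 0.5 mM IBMX and forskolin (1.5 μM working dilution). Intracellular cAMP quantified by competitive HTRF immunoassay (d2-cAMP, cryptate anti-cAMP) against a cAMP standard curve; compounds as 1/3 serial dilutions from 10 mM DMSO stocks.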

Assay [2] addresses Human CB2R (Cannabanoid receptor 2) (Homo sapiens (Human), UniProt P34972). Kind of assay: CB-2 in vitro cAMP (HTRF) assay in HEK-293 cells. It is filed as cell-based. The following applies: HEK-293 cells stably transfected with human CB2R, 250 nM Forskolin, mean where tested more than once, read-out: CB-2 (HEK_cAMP) EC50. The method in brief: as §1
Background: TR-FRET usually uses a lanthanide donor and a delayed reading to cut background.

Human CB1R (Cannabanoid receptor 1), sequence (P21554 whole entry): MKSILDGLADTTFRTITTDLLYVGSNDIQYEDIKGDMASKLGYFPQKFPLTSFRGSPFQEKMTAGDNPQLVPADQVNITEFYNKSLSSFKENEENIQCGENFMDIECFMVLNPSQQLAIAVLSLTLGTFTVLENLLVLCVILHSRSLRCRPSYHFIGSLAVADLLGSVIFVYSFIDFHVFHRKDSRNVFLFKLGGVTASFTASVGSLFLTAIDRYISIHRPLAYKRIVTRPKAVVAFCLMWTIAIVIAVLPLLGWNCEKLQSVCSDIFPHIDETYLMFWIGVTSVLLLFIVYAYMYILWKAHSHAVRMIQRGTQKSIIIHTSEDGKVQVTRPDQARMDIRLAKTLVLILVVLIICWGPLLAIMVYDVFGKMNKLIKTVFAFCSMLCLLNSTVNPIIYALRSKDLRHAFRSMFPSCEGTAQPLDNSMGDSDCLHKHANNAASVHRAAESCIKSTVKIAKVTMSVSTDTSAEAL
Human CB2R (Cannabanoid receptor 2), sequence (P34972 whole entry): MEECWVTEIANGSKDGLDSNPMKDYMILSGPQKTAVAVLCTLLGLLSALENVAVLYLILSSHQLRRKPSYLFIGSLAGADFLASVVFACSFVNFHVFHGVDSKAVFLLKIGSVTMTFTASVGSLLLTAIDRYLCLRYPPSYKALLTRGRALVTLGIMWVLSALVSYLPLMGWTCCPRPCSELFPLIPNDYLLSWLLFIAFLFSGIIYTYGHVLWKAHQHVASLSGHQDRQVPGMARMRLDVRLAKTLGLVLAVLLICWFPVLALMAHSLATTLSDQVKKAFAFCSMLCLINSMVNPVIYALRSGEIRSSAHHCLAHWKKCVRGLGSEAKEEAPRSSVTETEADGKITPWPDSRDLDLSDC

What is called EC50 is the concentration needed to bring the measured effect to its halfway point. As to `NC(=O)c1cc(S(=O)(=O)N2CCC(c3c4cc(C(c5ccc(Cl)cc5)c5ccc(Cl)cc5)ccc4nn3C3CC3)CC2)ccc1F` [Compound 163, 5-(4-(5-(bis(4-chlorophenyl)methyl)-2-cyclopropyl-2H-indazol-3-yl)piperidin-1-ylsulfonyl)-2-fluorobenzamide], the 50% effective concentration (EC50) in assay [1] is 12 nM; in assay [2], more than 10000 nM.

For the compound `COc1ccc(S(=O)(=O)N2CCC(c3c4cc(C(c5ccc(Cl)cc5)c5ccc(Cl)cc5)ccc4nn3C3CC3)CC2)cc1C(=O)O` [Compound 164, 5-(4-(5-(bis(4-chlorophenyl)methyl)-2-cyclopropyl-2H-indazol-3-yl)piperidin-1-ylsulfonyl)-2-methoxybenzoic acid], the EC50 in assay [1] was 26 nM; in assay [2], more than 10000 nM.

Regarding `NC(=O)c1ccc(S(=O)(=O)N2CCC(c3c4cc(C(c5ccc(Cl)cc5)c5ccc(Cl)cc5)ccc4nn3C3CC3)CC2)cn1` [Compound 165, 5-(4-(5-(bis(4-chlorophenyl)methyl)-2-cyclopropyl-2H-indazol-3-yl)piperidin-1-ylsulfonyl)picolinamide], the EC50 in assay [1] is 13 nM; in assay [2], more than 10000 nM.

As to `O=C(O)c1ccc(S(=O)(=O)N2CCC(c3c4cc(C(c5ccc(Cl)cc5)c5ccc(Cl)cc5)ccc4nn3C3CC3)CC2)cc1F` [Compound 166, 4-(4-(5-(bis(4-chlorophenyl)methyl)-2-cyclopropyl-2H-indazol-3-yl)piperidin-1-ylsulfonyl)-2-fluorobenzoic acid], the values for the EC50 in assay [1] and in assay [2] were 2 nM and 2390 nM, respectively.

Turning to `NC(=O)c1ccc(S(=O)(=O)N2CCC(c3c4cc(C(c5ccc(Cl)cc5)c5ccc(Cl)cc5)ccc4nn3C3CC3)CC2)cc1F` [Compound 167, 4-(4-(5-(bis(4-chlorophenyl)methyl)-2-cyclopropyl-2H-indazol-3-yl)piperidin-1-ylsulfonyl)-2-fluorobenzamide], the concentration giving a half-maximal response (EC50) in assay [1] was 12 nM; in assay [2], more than 10000 nM.

As to `O=C(O)c1cc(S(=O)(=O)N2CCC(c3c4cc(C(c5ccc(Cl)cc5)c5ccc(Cl)cc5)ccc4nn3C3CC3)CC2)ccc1Cl` [Compound 168, 5-(4-(5-(bis(4-chlorophenyl)methyl)-2-cyclopropyl-2H-indazol-3-yl)piperidin-1-ylsulfonyl)-2-chlorobenzoic acid], the EC50 turned out to be 2 nM in assay [1] and 7040 nM in assay [2].

Turning to `CNC(=O)c1cc(S(=O)(=O)N2CCC(c3c4cc(C(c5ccc(Cl)cc5)c5ccc(Cl)cc5)ccc4nn3C3CC3)CC2)ccc1Cl` [Compound 170, 5-(4-(5-(bis(4-chlorophenyl)methyl)-2-cyclopropyl-2H-indazol-3-yl)piperidin-1-ylsulfonyl)-2-chloro-N-methylbenzamide], the 50% effective concentration (EC50) is 9 nM in assay [1] and more than 10000 nM in assay [2].

Turning to `O=C(O)c1ccc(S(=O)(=O)N2CCC(c3c4cc(C(c5ccc(Cl)cc5)c5ccc(Cl)cc5)ccc4nn3C3CC3)CC2)o1` [Compound 171, 5-(4-(5-(bis(4-chlorophenyl)methyl)-2-cyclopropyl-2H-indazol-3-yl)piperidin-1-ylsulfonyl)furan-2-carboxylic acid], the EC50 in assay [1] was 3 nM; in assay [2], more than 10000 nM.

In the case of `NC(=O)c1ccc(S(=O)(=O)N2CCC(c3c4cc(C(c5ccc(Cl)cc5)c5ccc(Cl)cc5)ccc4nn3C3CC3)CC2)o1` [Compound 172, 5-(4-(5-(bis(4-chlorophenyl)methyl)-2-cyclopropyl-2H-indazol-3-yl)piperidin-1-ylsulfonyl)furan-2-carboxamide], the 50% effective concentration (EC50) is 3 nM in assay [1] and more than 10000 nM in assay [2].

As for `O=S(=O)(N1CCC(c2n[nH]c3ccc(C(c4ccc(Cl)cc4)c4ccc(Cl)cc4)cc23)CC1)C(F)(F)F` [Compound 173], the 50% effective concentration (EC50) turned out to be 7 nM in assay [1] and 5780 nM in assay [2].

For `NC(=O)COc1ccc(N2CCC(c3nn(C4CC4)c4ccc(C(c5ccc(Cl)cc5)c5ccc(Cl)cc5)cc34)CC2)cc1` [Compound 175], the 50% effective concentration (EC50) in assay [1] was 1130 nM; in assay [2], more than 10000 nM.

In the case of `CNC(=O)c1ccc(S(=O)(=O)N2CCC(c3c4cc(C(c5ccc(Cl)cc5)c5ccc(Cl)cc5)ccc4nn3C3CC3)CC2)cc1F` [Compound 176, 4-(4-(5-(bis(4-chlorophenyl)methyl)-2-cyclopropyl-2H-indazol-3-yl)piperidin-1-ylsulfonyl)-2-fluoro-N-methylbenzamide], the EC50 in assay [1] was 5 nM; in assay [2] it was more than 10000 nM.

As to `O=C(O)c1cccc(N2CCC(c3nn(C4CC4)c4ccc(C(c5ccc(Cl)cc5)c5ccc(Cl)cc5)cc34)CC2)c1` [Compound 178], the EC50 in assay [1] was 324 nM; in assay [2], more than 10000 nM.

In the case of `NC(=O)c1cccc(N2CCC(c3nn(C4CC4)c4ccc(C(c5ccc(Cl)cc5)c5ccc(Cl)cc5)cc34)CC2)c1` [Compound 179], the EC50 was 93 nM in assay [1] and more than 10000 nM in assay [2].

With `O=C(O)Cc1cccc(N2CCC(c3nn(C4CC4)c4ccc(C(c5ccc(Cl)cc5)c5ccc(Cl)cc5)cc34)CC2)c1` [Compound 180], the concentration for a half-maximal effect (EC50) in assay [1] is 6550 nM; in assay [2], more than 10000 nM.

`O=C(O)Cc1ccc(N2CCC(c3nn(C4CC4)c4ccc(C(c5ccc(Cl)cc5)c5ccc(Cl)cc5)cc34)CC2)cc1` [Compound 181]: the EC50 in assay [1] was 7800 nM; in assay [2], more than 10000 nM.

For the compound `NC(=O)Cc1ccc(N2CCC(c3nn(C4CC4)c4ccc(C(c5ccc(Cl)cc5)c5ccc(Cl)cc5)cc34)CC2)cc1` [Compound 182], the EC50 was 271 nM in assay [1] and more than 10000 nM in assay [2].

In the case of `O=C(O)c1cccc(N2CCC(c3c4cc(C(c5ccc(Cl)cc5)c5ccc(Cl)cc5)ccc4nn3C3CC3)CC2)c1` [Compound 183], the values for the EC50 in assay [1] and in assay [2] were 77 nM and more than 10000 nM, respectively.

For `NC(=O)c1cccc(N2CCC(c3c4cc(C(c5ccc(Cl)cc5)c5ccc(Cl)cc5)ccc4nn3C3CC3)CC2)c1` [Compound 184, 3-(4-(5-(bis(4-chlorophenyl)methyl)-2-cyclopropyl-2H-indazol-3-yl)piperidin-1-yl)benzamide], the EC50 is 26 nM in assay [1] and more than 10000 nM in assay [2].

Take `O=C(O)Cc1cccc(N2CCC(c3c4cc(C(c5ccc(Cl)cc5)c5ccc(Cl)cc5)ccc4nn3C3CC3)CC2)c1` [Compound 185]: the half-maximal effective concentration (EC50) in assay [1] is 833 nM; in assay [2], more than 10000 nM.

Regarding `NC(=O)Cc1ccc(N2CCC(c3c4cc(C(c5ccc(Cl)cc5)c5ccc(Cl)cc5)ccc4nn3C3CC3)CC2)cc1` [Compound 186], the EC50 in assay [1] was 59 nM; in assay [2], more than 10000 nM.

`O=C(O)c1ccc(C(O)(c2ccc(Cl)cc2)c2ccc3[nH]nc(C4CCN(S(=O)(=O)C(F)(F)F)CC4)c3c2)cc1` (centres unmarked) [Compound 187]: the EC50 in assay [1] is 3040 nM; in assay [2], more than 10000 nM.

As to `NC(=O)c1ccc(N2CCC(c3nn(C4CC4)c4ccc(C(c5ccc(Cl)cc5)c5ccc(Cl)cc5)cc34)CC2)cc1` [Compound 189], the results for the EC50 in assay [1] and in assay [2] were 23 nM and more than 10000 nM, respectively.

For the compound `NC(=O)Cc1cccc(N2CCC(c3nn(C4CC4)c4ccc(C(c5ccc(Cl)cc5)c5ccc(Cl)cc5)cc34)CC2)c1` [Compound 190], the EC50 was 1080 nM in assay [1] and more than 10000 nM in assay [2].

Regarding `O=C(O)COc1cccc(N2CCC(c3nn(C4CC4)c4ccc(C(c5ccc(Cl)cc5)c5ccc(Cl)cc5)cc34)CC2)c1` [Compound 191], the EC50 is 5290 nM in assay [1] and more than 10000 nM in assay [2].

With `O=C(O)COc1ccc(N2CCC(c3nn(C4CC4)c4ccc(C(c5ccc(Cl)cc5)c5ccc(Cl)cc5)cc34)CC2)cc1` [Compound 192], the EC50 in assay [1] is 7080 nM; in assay [2], more than 10000 nM.

With `O=C(O)c1ccc(N2CCC(c3c4cc(C(c5ccc(Cl)cc5)c5ccc(Cl)cc5)ccc4nn3C3CC3)CC2)cc1` [Compound 193], the EC50 in assay [1] turned out to be 474 nM; in assay [2], 9300 nM.

In the case of `NC(=O)c1ccc(N2CCC(c3c4cc(C(c5ccc(Cl)cc5)c5ccc(Cl)cc5)ccc4nn3C3CC3)CC2)cc1` [Compound 194, 4-(4-(5-(bis(4-chlorophenyl)methyl)-2-cyclopropyl-2H-indazol-3-yl)piperidin-1-yl)benzamide], the values for the EC50 in assay [1] and in assay [2] were 48 nM and more than 10000 nM, respectively.

For `NC(=O)COc1cccc(N2CCC(c3c4cc(C(c5ccc(Cl)cc5)c5ccc(Cl)cc5)ccc4nn3C3CC3)CC2)c1` [Compound 195, 2-(3-(4-(5-(bis(4-chlorophenyl)methyl)-2-cyclopropyl-2H-indazol-3-yl)piperidin-1-yl)phenoxy)acetamide], the EC50 came out at 32 nM in assay [1] and 6990 nM in assay [2].

`O=C(O)COc1ccc(N2CCC(c3c4cc(C(c5ccc(Cl)cc5)c5ccc(Cl)cc5)ccc4nn3C3CC3)CC2)cc1` [Compound 196]: the EC50 in assay [1] was 4180 nM; in assay [2], more than 10000 nM.

Consider `NC(=O)COc1ccc(N2CCC(c3c4cc(C(c5ccc(Cl)cc5)c5ccc(Cl)cc5)ccc4nn3C3CC3)CC2)cc1` [Compound 197, 2-(4-(4-(5-(bis(4-chlorophenyl)methyl)-2-cyclopropyl-2H-indazol-3-yl)piperidin-1-yl)phenoxy)acetamide], for which the EC50 in assay [1] was 32 nM; in assay [2] it was 7100 nM.

With `O=C(O)c1ccc(N2CCC(c3nn(C4CC4)c4ccc(C(c5ccc(Cl)cc5)c5ccc(Cl)cc5)cc34)CC2)cc1` [Compound 198], the EC50 was 150 nM in assay [1] and more than 10000 nM in assay [2].

For `NC(=O)COc1cccc(N2CCC(c3nn(C4CC4)c4ccc(C(c5ccc(Cl)cc5)c5ccc(Cl)cc5)cc34)CC2)c1` [Compound 199], the EC50 in assay [1] was 158 nM; in assay [2], more than 10000 nM.

On to `O=C(O)c1ccc(S(=O)(=O)N2CCC(c3c4cc(C(c5ccc(Cl)cc5)c5ccc(Cl)cc5)ccc4nn3C3CC3)CC2)cc1F` [Compound 200], for which the EC50 in assay [1] was 624 nM; in assay [2], more than 10000 nM.
